ChEMBL document CHEMBL4152332, “Discovery and synthesis of novel magnolol derivatives with potent anticancer activity in non-small cell lung cancer” (Eur J Med Chem, 2018)

Key:
HCC827 = assay: Antiproliferative activity against human HCC827 cells after 72 hrs by MTT assay; assay type: functional, cell-based; conditions: HCC827, 72 h
NCI-H1975 = assay: Antiproliferative activity against human NCI-H1975 cells after 72 hrs by MTT assay; assay type: functional, cell-based; conditions: NCI-H1975, 72 h
NCI-H460 = assay: Antiproliferative activity against human H460 cells after 72 hrs by MTT assay; assay type: functional, cell-based; conditions: NCI-H460, 72 h
[1] = Apparent aqueous solubility of the compound by HPLC analysis; assay type: physicochemical; conditions: aqueous solution

Work on `C=CCc1ccc(O)c(-c2cc(CC=C)cc(CN3CCCCC3)c2O)c1` yielded an IC50 (HCC827) of over 20 µM, an IC50 (NCI-H1975) of over 20 µM and an IC50 (NCI-H460) of over 20 µM.
In the case of `C=CCc1ccc(O)c(-c2cc(CC=C)cc(CN3CCC(CNC(=O)OC(C)(C)C)CC3)c2O)c1`, the IC50 (HCC827) is reported as over 20 µM, the IC50 (NCI-H1975) is reported as over 20 µM and the IC50 (NCI-H460) is reported as over 20 µM.
Work on `C=CCc1ccc(O)c(-c2cc(CC=C)cc(CN3CCC(CN)CC3)c2O)c1` yielded an IC50 (HCC827) of over 20 µM, an IC50 (NCI-H1975) of over 20 µM and an IC50 (NCI-H460) of over 20 µM.
With `C=CCc1cc(-c2cc(C=O)ccc2O)ccc1O` [MAGNALEDEHYDE E] the IC50 (HCC827) was over 40 µM, the IC50 (NCI-H1975) was over 40 µM and the IC50 (NCI-H460) was over 40 µM.
Work on `C=CCc1ccc(O)c(-c2cc(CC=C)cc(CN3CCN(CC=C)CC3)c2O)c1` yielded an IC50 (HCC827) of over 20 µM, an IC50 (NCI-H1975) of over 20 µM and an IC50 (NCI-H460) of over 20 µM.
Molecule `C=CCc1cc(-c2ccc(O)c(CC=C)c2)c(O)c([C@@H]2C=C(C)CC[C@H]2C(C)C)c1` has an IC50 (HCC827) of 31.4 µM, an IC50 (NCI-H1975) of 26.7 µM and an IC50 (NCI-H460) of 27.6 µM.
With `C=CCc1ccc(O)c(-c2cc(CC=C)cc(CN3CCN(CCO)CC3)c2O)c1` the IC50 (HCC827) was 18.9 µM, the IC50 (NCI-H1975) was 16.5 µM and the IC50 (NCI-H460) was 17.4 µM.
Molecule `C=CCc1ccc(O)c(-c2cc(CC=C)cc([C@@H]3C=C(C)CC[C@H]3C(C)C)c2O)c1` has an IC50 (HCC827) of 15.8 µM, an IC50 (NCI-H1975) of 16.6 µM and an IC50 (NCI-H460) of 18.6 µM. For the same molecule, the solubility [1] was under 10 µg/mL.
`C=CCc1ccc(O)c(-c2cc(CC=C)cc(CN3CCN(C(=O)C4CC4)CC3)c2O)c1` showed an IC50 (HCC827) of over 20 µM, an IC50 (NCI-H1975) of over 20 µM and an IC50 (NCI-H460) of over 20 µM.
`C=CCc1ccc(O)c(-c2cc(CC=C)cc(CN3CCN(CCCC)CC3)c2O)c1` gave an IC50 (HCC827) of over 20 µM, an IC50 (NCI-H1975) of over 20 µM and an IC50 (NCI-H460) of over 20 µM.
